Experimental data from patent US20230414775A1, “TUBULYSINS AND PROTEIN-TUBULYSIN CONJUGATES” (priority 2021, published 2023).
Like-named read-outs stand apart in the source and are kept apart here.

What was measured:
HCT15 cells = test: HCT15 anti-proliferation / cell killing assay (CellTiter-Glo), with or without verapamil; assay type: cell-based, human; settings: Homo sapiens
Experimental: The cell line used in the anti-proliferation assays was HCT15, a human colon, colorectal carcinoma cell line. The HCT15 cells were grown in RPMI medium 1640+10% FBS. To run the assay, the cells (40 μL, 400 cells) were added to each well in a 384-well plate and incubated for twenty-four hours at 37° C. with 5% CO2. One hour before adding compounds, freshly dilute Verapamil to 0.2 mg/ml in ddH2O. Add 1 μL/well diluted Verapamil to Verapamil treatment wells and 1 μL/well ddH2O to the non-Verapamil treatment wells. Return plates to the incubator at 37° C. with 5% CO2. Then the cells were treated with test compounds at various concentrations using HPD300, and then normalize the DMSO to 0.5%. The control wells contained cells and the medium but lack the test compounds. The plates were incubated for 120 hours at 37° C. with 5% CO2. CTG reagent was then added to the wells (25 μL). After the plates were shaken for 10 min and then incubated for 10 min at room temperature, paste the clear bottom with white back seal and record luminescence with Envision. The inhibition % was calculated according to the following equation: inhibition %=[1−(assay-blank)/(control-blank)]×100.

SK-BR-3 cells = test: SK-BR-3 anti-proliferation assay for payloads (CellTiter-Glo); assay type: cell-based; settings: Homo sapiens, free payload, 120-144 h, read-out: SKBR3
Experimental: The cell line used in the anti-proliferation assays was SK-BR-3, a human breast, adenocarcinoma (pleural effusion) cell line. The cells were grown in McCoy's 5a Medium+10% FBS. To run the assay for payloads, the cells (40 μL, 700 cells) were added to each well in a 384-well plate and incubated for 24 hours at 37° C. with 5% CO2. Then the cells were treated with test compounds at various concentrations using HPD300, and then normalize the DMSO to 0.5%. The control wells contain cells and the medium but lack the test compounds. The plates were incubated for 120 h at 37° C. with 5% CO2. To run the assay for ADCs and some key payloads, the cells (80 μL, 1000 cells) were added to each well in a 96-well plate and incubated for twenty-four hours at 37° C. with 5% CO2. Next, the ADCs or payloads were diluted with Opti-Mem with 0.1% BSA. The cells were treated with test compounds or ADCs (20 μL) at various concentrations in appropriate cell culture medium (total volume, 0.1 mL). The final concentration of DMSO was adjusted to 0.2% and the Opti-Mem with 0.1% BSA was adjusted to 5%. The control wells contained cells and the medium but lacked the test compounds. The plates were incubated for 144 h at 37° C. with 5% CO2. CTG reagent was then added to the wells (25 μL/384-well or 100 μL/96-well). After the plates were shaken for 10 min and then incubated for 10 min at room temperature, paste the clear bottom with white back seal and record luminescence with Envision. The inhibition % was calculated according to the following equation: inhibition %=[1-(assay-blank)/(control-blank)]×100.

[1] = HCT15 cells, no verapamil, 120 h (5 days), read-out: HCT-15
[2] = HCT-15, HCT15 cells pre-treated with verapamil, 120 h, read-out: HCT-15 with verapamil

SMILES	IC50 (HCT15 cells; [1]) [nM]	IC50 (HCT15 cells; [2]) [nM]	IC50 (SK-BR-3 cells) [nM]
CCCCCCN(C(=O)[C@@H](NC(=O)[C@H]1CCCCN1CC(=O)O)[C@@H](C)CC)[C@H](C[C@@H](OC(C)=O)c1nc(C(=O)N[C@@H](Cc2ccc(N)cc2)CC(C)(C)C(=O)O)cs1)C(C)C [PA10, (S)-4-(2-((1R,3R)-1-acetoxy-3-((2S,3S)-2-((R)-1-(carboxymethyl)piperidine-2-carboxamido)-N-hexyl-3-methylpentanamido)-4-methylpentyl)thiazole-4-carboxamido)-5-(4-aminophenyl)-2,2-dimethylpentanoic acid]	31.7	2.95	5.33
C#CCCCON(C(=O)[C@@H](NC(=O)[C@@]1(C)CCCN1CCO)[C@@H](C)CC)[C@H](C[C@@H](OC(C)=O)c1nc(C(=O)N[C@@H](Cc2ccc(N)cc2)CC(C)(C)C(=O)O)cs1)C(C)C [PA3, (4S)-4-({2-[(1R,3R)-1-(acetyloxy)-3-[(2S,3S)-2-{[(2R)-1-(2-hydroxyethyl)-2-methylpyrrolidin-2-yl]formamido}-3-methyl-N-(pent-4-yn-1-yloxy)pentanamido]-4-methylpentyl]-1,3-thiazol-4-yl}formamido)-5-(4-aminophenyl)-2,2-dimethylpentanoic acid]	7.7	0.741	1.46
CCCCCCN(C(=O)[C@@H](NC(=O)[C@H]1CCCCN1C)[C@@H](C)CC)[C@H](C[C@@H](OC(C)=O)c1nc(C(=O)N[C@@H](Cc2ccc(NC(=O)CN)cc2)CC(C)(C)C(=O)O)cs1)C(C)C [Compound P28, reference compound]	0.172	0.107	0.039
CCCCCCN(C(=O)[C@@H](NC(=O)[C@H]1CCCCN1CCO)[C@@H](C)CC)[C@H](C[C@@H](OCC)c1nc(C(=O)N[C@@H](Cc2ccc(NC(=O)CN)cc2)CC(C)(C)C(=O)O)cs1)C(C)C [PA9, (S)-5-(4-(2-aminoacetamido)phenyl)-4-(2-((1R,3R)-1-ethoxy-3-((2S,3S)—N-hexyl-2-((R)-1-(2-hydroxyethyl)piperidine-2-carboxamido)-3-methylpentanamido)-4-methylpentyl)thiazole-4-carboxamido)-2,2-dimethylpentanoic acid]	9.89	1.08	5.38
CCCCCCN(C(=O)[C@@H](NC(=O)[C@H]1CCCCN1C)[C@@H](C)CC)[C@H](C[C@@H](NC(C)=O)c1nc(C(=O)N[C@@H](Cc2ccc(NC(=O)CN)cc2)CC(C)(C)C(=O)O)cs1)C(C)C [PA21, (S)-4-(2-((1R,3R)-1-acetamido-3-((2S,3S)—N-hexyl-3-methyl-2-((R)-1-methylpiperidine-2-carboxamido)pentanamido)-4-methylpentyl)thiazole-4-carboxamido)-acid]	13.8	1.73	0.703
CCCCCCN(C(=O)[C@@H](NC(=O)[C@H]1CCCCN1CCO)[C@@H](C)CC)[C@H](C[C@@H](OC(C)=O)c1nc(C(=O)N[C@@H](Cc2ccc(N)c(F)c2)CC(C)(C)C(=O)O)cs1)C(C)C [PA8, (4S)-4-({2-[(1R,3R)-1-(acetyloxy)-3-[(2S,3S)—N-hexyl-2-{[(2R)-1-(2-hydroxyethyl)piperidin-2-yl]formamido}-3-methylpentanamido]-4-methylpentyl]-1,3-thiazol-4-yl}formamido)-5-(4-amino-3-fluorophenyl)-2,2-dimethylpentanoic acid]	0.072	0.029	0.017
CCCCCCN(C(=O)[C@@H](NC(=O)[C@@]1(C)CCCN1CCO)[C@@H](C)CC)[C@H](C[C@@H](OC(C)=O)c1nc(C(=O)N[C@@H](Cc2ccc(N)cc2)CC(C)(C)C(=O)O)cs1)C(C)C [PA6, (4S)-4-({2-[(1R,3R)-1-(acetyloxy)-3-[(2S,3S)—N-hexyl-2-{[(2R)-1-(2-hydroxyethyl)-2-methylpyrrolidin-2-yl]formamido}-3-methylpentanamido]-4-methylpentyl]-1,3-thiazol-4-yl}formamido)-5-(4-aminophenyl)-2,2-dimethylpentanoic acid]	3.27	0.62	0.514
CCCCCCN(C(=O)[C@@H](NC(=O)[C@H]1CCCCN1CCN)[C@@H](C)CC)[C@H](C[C@@H](OCC)c1nc(C(=O)N[C@@H](Cc2ccc(O)cc2)CC(C)(C)C(=O)O)cs1)C(C)C [PA4, (S)-4-(2-((1R,3R)-3-((2S,3S)-2-((R)-1-(2-aminoethyl)piperidine-2-carboxamido)-N-hexyl-3-methylpentanamido)-1-ethoxy-4-methylpentyl)thiazole-4-carboxamido)-5-(4-hydroxyphenyl)-2,2-dimethylpentanoic acid]	85	6.19	> 1
CCCCCCN(C(=O)[C@@H](NC(=O)[C@H]1CCCCN1C)[C@@H](C)CC)[C@H](C[C@@H](OC(C)=O)c1nc(C(=O)N[C@@H](Cc2ccc(N)cc2)CC(C)(C)C(=O)NCC(=O)O)cs1)C(C)C (racemic) [PA29, Rac-((R)-4-(2-((1S,3S)-1-acetoxy-3-((2R,3R)—N-hexyl-3-methyl-2-((S)-1-methylpiperidine-2-carboxamido)pentanamido)-4-methylpentyl)thiazole-4-carboxamido)-5-(4-aminophenyl)-2,2-dimethylpentanoyl)glycine]	97.1	9.7	1.47
CCCCCCN(C(=O)[C@@H](NC(=O)[C@H]1CCCCO1)[C@@H](C)CC)[C@H](C[C@@H](OCC)c1nc(C(=O)N[C@@H](Cc2ccc(N)cc2)CC(C)(C)C(=O)O)cs1)C(C)C [PA28]	154		> 100
CCCCCCN(C(=O)[C@@H](NC(=O)[C@@]1(C)CCCN1)[C@@H](C)CC)[C@H](C[C@@H](OC(C)=O)c1nc(C(=O)N[C@@H](Cc2ccc(O)cc2)CC(C)(C)C(=O)O)cs1)C(C)C [Compound P22, reference compound]	0.265	0.078	0.087
CCCCCCN(C(=O)[C@@H](NC(=O)[C@H]1CCCCN1C)[C@@H](C)CC)[C@H](C[C@@H](OC(=O)NCCOCCOCCO)c1nc(C(=O)N[C@@H](Cc2ccc(N)c(F)c2)CC(C)(C)C(=O)O)cs1)C(C)C (mixture of isomers) [PA25, (S)-5-(4-amino-3-fluorophenyl)-4-(2-((3RS,6SR,8SR)-3-((RS)-sec-butyl)-5-hexyl-19-hydroxy-6-isopropyl-1-((R)-1-methylpiperidin-2-yl)-1,4,10-trioxo-9,14,17-trioxa-2,5,11-triazanonadecan-8-yl)thiazole-4-carboxamido)-2,2-dimethylpentanoic acid]	0.477	0.158	1.6
CCCCCCN(C(=O)[C@@H](NC(=O)[C@H]1CCCCN1)[C@@H](C)CC)[C@H](C[C@@H](OCCCO)c1nc(C(=O)N[C@@H](Cc2ccc(NCC(=O)O)cc2)CC(C)(C)C(=O)O)cs1)C(C)C (mixture of isomers) [PA23, Rac-(R)-5-(4-((carboxymethyl)amino)phenyl)-4-(2-((1S,3S)-3-((2R,3R)—N-hexyl-3-methyl-2-((S)-piperidine-2-carboxamido)pentanamido)-1-(3-hydroxypropoxy)-4-methylpentyl)thiazole-4-carboxamido)-2,2-dimethylpentanoic acid]	> 1000	> 1000	9.35
CCCCCCN(C(=O)[C@@H](NC(=O)[C@@]1(C)CCCN1CCN)[C@@H](C)CC)[C@H](C[C@@H](OC(C)=O)c1nc(C(=O)N[C@@H](Cc2ccc(O)cc2)CC(C)(C)C(=O)O)cs1)C(C)C (mixture of isomers) [PA5, (S)-4-(2-((1RS,3RS)-1-acetoxy-3-((2SR,3SR)-2-((R)-1-(2-aminoethyl)-2-methylpyrrolidine-2-carboxamido)-N-hexyl-3-methylpentanamido)-4-methylpentyl)thiazole-4-carboxamido)-5-(4-hydroxyphenyl)-2,2-dimethylpentanoic acid]	> 100	15.9	18.3
CCCCCCN(C(=O)[C@@H](NC(=O)[C@H]1CCCCN1C)[C@@H](C)CC)[C@H](C[C@@H](OC(=O)NCC(O)CO)c1nc(C(=O)N[C@@H](Cc2ccc(NCCO)cc2)CC(C)(C)C(=O)O)cs1)C(C)C (some centres unmarked) [PA27]	> 100	33.6	63.9
